Results as given in patent US20250082674A1, “METHODS OF TREATING COPPER METABOLISM-ASSOCIATED DISEASES OR DISORDERS” (priority 2021, published 2025).

Columns and labels:
copper = settings: Study 301, FIG. 23, versus SoC chelator therapy
From the text: Biomarkers and Biobank Samples: Blood samples were collected to measure plasma Cp and CpC. Urine samples were collected for analysis of urine copper and molybdenum. Additional biomarker or biobank samples were collected for the analysis of molybdenum and/or copper species associated with treatment.

[1] = test system: ^64CuCl2 (^64Cu) intestinal absorption and hepatic copper uptake; assay: Example 2: Copper Absorption study, oral 64Cu PET-CT in healthy subjects; assay type: in vivo, human
Experimental: Blood was collected at several time points to assess plasma copper kinetics. The study was carried out as a randomized, placebo-controlled intervention study. […] The study assessed the previously listed organs and the effect of anti-copper treatment by comparing the mean standard uptake value (SUV) in the organs of interest. […] The dynamic baseline scans and the subsequent static scans were compared across all treatments.

[2] = in vivo
[3] = healthy subjects, after 15 hours

Bis-choline tetrathiomolybdate [BC-TTM]
24-hour urinary copper (copper): lower | copper uptake in the liver one hour after oral 64Cu tracer ([1]; healthy subject, FIG. 25): virtually no copper uptake in the liver | Absorption of orally-administered copper compared to penicillamine, trientine, or placebo ([1]; healthy subjects): significantly reduced | blood levels of 64Cu ([1]; healthy subjects): reduced | mean SUV liver / hepatic uptake of labeled copper, comparison between treatments ([1]; healthy subjects, 1 hour and 15 hours after oral 64Cu): significantly lower | reduction of mean hepatic copper uptake ([1]; healthy subjects, 1 hr scan post treatment, oral 64Cu, 7 days treatment): ~90% | range of reduction in hepatic copper uptake ([1]; healthy subjects, 13 hour scan): 60%-90% | mean SUV liver compared with baseline or placebo ([1]; healthy subjects, FIG. 26): markedly reduced | mean SUV 64Cu Pancreas post treatment ([1]; healthy subjects, after 1 hour): lower than penicllamine, trientine and placebo | mean SUV 64Cu Urinary bladder post treatment ([1]; healthy subjects, after 1 hour): lower than penicllamine, trientine and placebo | mean SUV 64Cu Colon post treatment [1, 3]: higher than penicillamine and placebo | mean SUV 64Cu Gallbladder post treatment [1, 3]: lower than penicllamine, trientine and placebo | AEs in SOC Investigations [2]: 29.5% | AEs in SOC Metabolism and nutrition disorders [2]: 11.5% | AEs in SOC Skin and subcutaneous tissue disorders [2]: 13.1% | Affective disorder, E events [2]: 0 | Affective disorder, N participants [2]: 0 | Alanine aminotransferase increased, E events [2]: 14 | Alanine aminotransferase increased, N participants [2]: 12 | Alanine aminotransferase increased, participants (%) [2]: 19.7% | Anxiety, E events [2]: 1 | Anxiety, N participants [2]: 1 | Anxiety, participants (%) [2]: 1.6% | Aspartate aminotransferase increased, E events [2]: 4 | Aspartate aminotransferase increased, N participants [2]: 4 | Aspartate aminotransferase increased, participants (%) [2]: 6.6% | Attention deficit hyperactivity disorder, E events [2]: 0 | Attention deficit hyperactivity disorder, N participants [2]: 0 | Blood and lymphatic system disorders, E events [2]: 18 | Blood and lymphatic system disorders, N participants [2]: 7 | Blood and lymphatic system disorders, participants (%) [2]: 11.5% | Cardiac disorders, E events [2]: 5 | Cardiac disorders, N participants [2]: 3 | Cardiac disorders, participants (%) [2]: 4.9% | Congenital, familial, and genetic disorders, E events [2]: 0 | Congenital, familial, and genetic disorders, N participants [2]: 0 | Dyslipidemia, E events [2]: 1 | Dyslipidemia, N participants [2]: 1 | Dyslipidemia, participants (%) [2]: 1.6% | Ear and labyrinth disorders, E events [2]: 1 | Ear and labyrinth disorders, N participants [2]: 1 | Ear and labyrinth disorders, participants (%) [2]: 1.6% | Eczema, E events [2]: 1 | Eczema, N participants [2]: 1 | Eczema, participants (%) [2]: 1.6% | Eye disorders, E events [2]: 0 | Eye disorders, N participants [2]: 0 | Fatigue, E events [2]: 5 | Fatigue, N participants [2]: 5 | Fatigue, participants (%) [2]: 8.2% | Gamma-glutamyltransferase increased, E events [2]: 3 | Gamma-glutamyltransferase increased, N participants [2]: 3 | Gamma-glutamyltransferase increased, participants (%) [2]: 4.9% | Gastrointestinal disorders, E events [2]: 30 | Gastrointestinal disorders, N participants [2]: 18 | Gastrointestinal disorders, participants (%) [2]: 29.5% | Hand dermatitis, E events [2]: 1 | Hand dermatitis, N participants [2]: 1 | Hand dermatitis, participants (%) [2]: 1.6% | Hepatic enzyme increased, E events [2]: 3 | Hepatic enzyme increased, N participants [2]: 3 | Hepatic enzyme increased, participants (%) [2]: 4.9% | Hepatobiliary disorders, E events [2]: 3 | Hepatobiliary disorders, N participants [2]: 2 | Hepatobiliary disorders, participants (%) [2]: 3.3% | Hyperlipidaemia, E events [2]: 1 | Hyperlipidaemia, N participants [2]: 1 | Hyperlipidaemia, participants (%) [2]: 1.6% | Hypertriglyceridaemia, E events [2]: 3 | Hypertriglyceridaemia, N participants [2]: 1 | Hypertriglyceridaemia, participants (%) [2]: 1.6% | Infections and infestations, E events [2]: 23 | Infections and infestations, N participants [2]: 17 | Infections and infestations, participants (%) [2]: 27.9% | Injury, poisoning and procedural complications, E events [2]: 13 | Injury, poisoning and procedural complications, N participants [2]: 7 | Injury, poisoning and procedural complications, participants (%) [2]: 11.5% | Investigations, E events [2]: 29 | Investigations, N participants [2]: 18 | Investigations, participants (%) [2]: 29.5% | Metabolism and nutrition disorders, E events [2]: 10 | Metabolism and nutrition disorders, N participants [2]: 7 | Metabolism and nutrition disorders, participants (%) [2]: 11.5% | Neoplasms benign, malignant, and unspecified (incl cysts and polyps), E events [2]: 1 | Neoplasms benign, malignant, and unspecified (incl cysts and polyps), N participants [2]: 1 | Neoplasms benign, malignant, and unspecified (incl cysts and polyps), participants (%) [2]: 1.6% | Nervous system disorders, E events [2]: 12 | Nervous system disorders, N participants [2]: 11 | Nervous system disorders, participants (%) [2]: 18.0% | Neutrophil count decreased, E events [2]: 1 | Neutrophil count decreased, N participants [2]: 1 | Neutrophil count decreased, participants (%) [2]: 1.6% | Post-traumatic stress disorder, E events [2]: 1 | Post-traumatic stress disorder, N participants [2]: 1 | Post-traumatic stress disorder, participants (%) [2]: 1.6% | Product issues, E events [2]: 0 | Product issues, N participants [2]: 0 | Pruritus, E events [2]: 2 | Pruritus, N participants [2]: 2 | Pruritus, participants (%) [2]: 3.3% | Psychiatric disorders, E events [2]: 3 | Psychiatric disorders, N participants [2]: 3 | Psychiatric disorders, participants (%) [2]: 4.9% | Pyrexia, E events [2]: 1 | Pyrexia, N participants [2]: 1 | Pyrexia, participants (%) [2]: 1.6% | Rash pruritic, E events [2]: 1 | Rash pruritic, N participants [2]: 1 | Rash pruritic, participants (%) [2]: 1.6% | Rash, E events [2]: 5 | Rash, N participants [2]: 1 | Rash, participants (%) [2]: 1.6% | Renal and urinary disorders, E events [2]: 2 | Renal and urinary disorders, N participants [2]: 1 | Renal and urinary disorders, participants (%) [2]: 1.6% | Reproductive system and breast disorders, E events [2]: 0 | Reproductive system and breast disorders, N participants [2]: 0 | Respiratory, thoracic, and mediastinal disorders, E events [2]: 4 | Respiratory, thoracic, and mediastinal disorders, N participants [2]: 3 | Respiratory, thoracic, and mediastinal disorders, participants (%) [2]: 4.9% | Restlessness, E events [2]: 0 | Restlessness, N participants [2]: 0 | Skin and subcutaneous tissue disorders, E events [2]: 15 | Skin and subcutaneous tissue disorders, N participants [2]: 8 | Skin and subcutaneous tissue disorders, participants (%) [2]: 13.1% | Sleep disorder, E events [2]: 1 | Sleep disorder, N participants [2]: 1 | Sleep disorder, participants (%) [2]: 1.6% | Vascular disorders, E events [2]: 5 | Vascular disorders, N participants [2]: 3 | Vascular disorders, participants (%) [2]: 4.9% | imbalances in neurologic and psychiatric events after switch from SoC to BC-TTM [2]: not observed
